Results reported in PMC7413254 (Nature Communications, 2020).

Legend:
Type in all cases: cell-based
PfCRT^Dd2 [1] = molecular target: T1, PfCRT^Dd2 (Plasmodium falciparum, UniProt Q9N623, A220S/I356T/K76T/M74I/N326S/N75E/Q271E/R371I); assay: [3H]CQ uptake into Xenopus oocytes, cis-inhibition by unlabelled solute; conditions: PfCRTDd2 oocytes, background [3H]CQ accumulation subtracted, normalised to oocyte type control
Procedure, shortened: (§1)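 Radioactivity accumulated per oocyte, read by liquid scintillation after 10% SDS lysis, served as the uptake measure. Incubations ran 1.5 h at 27.5 °C in ND96 at pH 5.5, matching digestive-vacuole acidity.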

PfCRT^Ecu1110 [2] = molecular target: T2, PfCRT^Ecu1110 (Plasmodium falciparum, UniProt Q9N623, A220S/I356L/K76T/N326D); assay: as above; conditions: for PfCRT-mediated [3H]CQ transport, cis-inhibition (% PfCRTEcu1110 control): PfCRTEcu1110 oocytes, background [3H]CQ accumulation subtracted, normalised to oocyte type control; for [3H]CQ transport (% PfCRTEcu1110 control), cis-inhibition, PfCRTEcu1110: PfCRT-mediated component (background subtracted), sheet title says normalised to PfCRTDd2 control, mean ± SEM, SEM
Procedure, shortened: as §1

PfCRT^3D7 = PfCRT^3D7 (Plasmodium falciparum, UniProt Q8IBZ9); assay: cell-based; conditions: for PfCRT-mediated [3H]CQ transport, trans-stimulation (% PfCRT3D7 control): PfCRT3D7 oocytes, normalised to oocyte type control
Procedure, shortened: (§2)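 Transport measured in Xenopus oocytes expressing the transporters, 1.5 h at 27.5 °C in ND96 pH 5.5 unless noted. For trans-stimulation, VF-6 injected in 25 nL ND96 at pH 5.0–7.0 or Na^+-free (choline) buffer; intracellular levels based on ~400 nL oocyte volume. Ten oocytes per treatment, ≥4 experiments.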

PfCRT^Dd2 [3] = molecular target: T1, PfCRT^Dd2; assay: cell-based; conditions: for PfCRT-mediated [3H]CQ transport, trans-stimulation (% PfCRTDd2 control): PfCRTDd2 oocytes, normalised to oocyte type control; for [3H]CQ transport (% PfCRTDd2 control), trans-stimulation, PfCRTDd2: PfCRT-mediated component (background subtracted), mean ± SEM, SEM
Procedure, shortened: as §2

PfCRT^Ecu1110 [4] = molecular target: T2, PfCRT^Ecu1110; assay: cell-based; conditions: for PfCRT-mediated [3H]CQ transport, trans-stimulation (% PfCRTEcu1110 control): PfCRTEcu1110 oocytes, normalised to oocyte type control; for [3H]CQ transport (% PfCRTDd2 control), trans-stimulation, PfCRTEcu1110: PfCRT-mediated component (background subtracted), sheet title says normalised to PfCRTDd2 control, mean ± SEM, SEM
Procedure, shortened: as §2

[5] = [test solute]i = 5 mM (intracellular)
[6] = [test solute]i = 45 mM (intracellular; 30 mM for some solutes due to solubility)
[7] = [test solute]i = 5 mM (injected)
[8] = [test solute]i = 45 mM (30 mM for some solutes due to solubility)

T1 sequence (Q9N623 whole entry A220S/I356T/K76T/M74I/N326S/N75E/Q271E/R371I): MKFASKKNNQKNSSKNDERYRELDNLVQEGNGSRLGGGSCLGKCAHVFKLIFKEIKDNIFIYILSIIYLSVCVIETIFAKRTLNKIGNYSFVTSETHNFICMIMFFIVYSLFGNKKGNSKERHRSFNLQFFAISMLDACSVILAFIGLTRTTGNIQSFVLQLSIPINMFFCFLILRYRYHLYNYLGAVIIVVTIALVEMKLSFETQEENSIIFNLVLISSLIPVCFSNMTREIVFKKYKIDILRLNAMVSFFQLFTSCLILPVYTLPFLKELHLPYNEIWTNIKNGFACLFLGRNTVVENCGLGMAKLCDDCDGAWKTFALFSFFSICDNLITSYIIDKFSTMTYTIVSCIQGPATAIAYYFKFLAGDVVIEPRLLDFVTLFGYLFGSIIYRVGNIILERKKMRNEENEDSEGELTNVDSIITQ
Chain of PfCRT^3D7 (Q8IBZ9 59-398): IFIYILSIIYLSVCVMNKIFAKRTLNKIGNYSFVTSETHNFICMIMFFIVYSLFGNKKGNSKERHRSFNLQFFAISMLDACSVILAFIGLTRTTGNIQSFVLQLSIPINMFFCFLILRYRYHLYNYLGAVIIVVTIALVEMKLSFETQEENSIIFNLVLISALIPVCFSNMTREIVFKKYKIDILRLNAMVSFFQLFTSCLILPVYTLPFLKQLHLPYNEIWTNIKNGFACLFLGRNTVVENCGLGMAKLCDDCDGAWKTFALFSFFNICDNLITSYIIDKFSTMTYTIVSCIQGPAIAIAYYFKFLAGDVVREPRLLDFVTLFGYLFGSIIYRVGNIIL
T2 sequence (Q9N623 whole entry A220S/I356L/K76T/N326D): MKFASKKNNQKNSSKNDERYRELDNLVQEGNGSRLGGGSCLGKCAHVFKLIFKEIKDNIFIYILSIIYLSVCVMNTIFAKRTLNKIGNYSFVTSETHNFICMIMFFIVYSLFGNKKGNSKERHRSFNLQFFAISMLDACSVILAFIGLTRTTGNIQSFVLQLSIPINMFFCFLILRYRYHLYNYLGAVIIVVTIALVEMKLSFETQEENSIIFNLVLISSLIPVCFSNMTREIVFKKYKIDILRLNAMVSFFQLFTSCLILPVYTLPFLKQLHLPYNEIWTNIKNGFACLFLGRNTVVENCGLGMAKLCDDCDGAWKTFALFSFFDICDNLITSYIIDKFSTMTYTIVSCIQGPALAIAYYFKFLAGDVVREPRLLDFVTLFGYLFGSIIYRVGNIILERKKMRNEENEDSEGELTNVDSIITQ

Substance	PfCRT-mediated [3H]CQ transport, cis-inhibition (% PfCRTDd2 control) (PfCRT^Dd2 [1]; [test solute] = 0.5 mM)	PfCRT-mediated [3H]CQ transport, cis-inhibition (% PfCRTDd2 control) (PfCRT^Dd2 [1]; [test solute] = 1 mM)	PfCRT-mediated [3H]CQ transport, cis-inhibition (% PfCRTDd2 control) (PfCRT^Dd2 [1]; [test solute] = 2 mM)	PfCRT-mediated [3H]CQ transport, cis-inhibition (% PfCRTEcu1110 control) (PfCRT^Ecu1110 [2]; [test solute] = 1 mM)	PfCRT-mediated [3H]CQ transport, cis-inhibition (% PfCRTEcu1110 control) (PfCRT^Ecu1110 [2]; [test solute] = 2 mM)	[3H]CQ transport (% PfCRTEcu1110 control), cis-inhibition, PfCRTEcu1110 (PfCRT^Ecu1110 [2]; [test solute] = 0.5 mM) [% PfCRTEcu1110 control]	[3H]CQ transport (% PfCRTEcu1110 control), cis-inhibition, PfCRTEcu1110 (PfCRT^Ecu1110 [2]; [test solute] = 1 mM) [% PfCRTEcu1110 control]	[3H]CQ transport (% PfCRTEcu1110 control), cis-inhibition, PfCRTEcu1110 (PfCRT^Ecu1110 [2]; [test solute] = 2 mM) [% PfCRTEcu1110 control]	PfCRT-mediated [3H]CQ transport, trans-stimulation (% PfCRT3D7 control) (PfCRT^3D7; [5])	PfCRT-mediated [3H]CQ transport, trans-stimulation (% PfCRT3D7 control) (PfCRT^3D7; [6])	PfCRT-mediated [3H]CQ transport, trans-stimulation (% PfCRTDd2 control) (PfCRT^Dd2 [3]; [5])	PfCRT-mediated [3H]CQ transport, trans-stimulation (% PfCRTDd2 control) (PfCRT^Dd2 [3]; [6])	[3H]CQ transport (% PfCRTDd2 control), trans-stimulation, PfCRTDd2 (PfCRT^Dd2 [3]; [7]) [% PfCRTDd2 control]	[3H]CQ transport (% PfCRTDd2 control), trans-stimulation, PfCRTDd2 (PfCRT^Dd2 [3]; [8]) [% PfCRTDd2 control]	PfCRT-mediated [3H]CQ transport, trans-stimulation (% PfCRTEcu1110 control) (PfCRT^Ecu1110 [4]; [5])	PfCRT-mediated [3H]CQ transport, trans-stimulation (% PfCRTEcu1110 control) (PfCRT^Ecu1110 [4]; [6])	[3H]CQ transport (% PfCRTDd2 control), trans-stimulation, PfCRTEcu1110 (PfCRT^Ecu1110 [4]; [7]) [% PfCRTEcu1110 control]	[3H]CQ transport (% PfCRTDd2 control), trans-stimulation, PfCRTEcu1110 (PfCRT^Ecu1110 [4]; [8]) [% PfCRTEcu1110 control]	PfCRT-mediated [3H]CQ transport, cis-inhibition (% PfCRTEcu1110 control) (PfCRT^Ecu1110 [2]; [test solute] = 0.5 mM)	[3H]CQ transport (% PfCRT3D7 control), trans-stimulation, PfCRT3D7 (PfCRT^3D7; SEM)
KEEAE [KE-5]	68 ± 3.2	60 ± 4.9	50 ± 1.1	61 ± 1.5	54 ± 2.1	21 ± 0.4	19 ± 0.3	17 ± 0.3	98 ± 3.3	96 ± 2.1	97 ± 4.2	99 ± 3.2	97 ± 4.2	99 ± 3.2	98 ± 3.1	98 ± 1.3	30 ± 1.5	30 ± 1.3		
KEFTPPVQA [KA-9]	48 ± 2.0	32 ± 2.1	7 ± 0.1	41 ± 2.1	30 ± 1.1				130 ± 2.2	160 ± 3.9	98 ± 2.2	98 ± 1.7			98 ± 2.8	98 ± 2.0			48 ± 2.1	
LDNLK [LK-5]	31 ± 1.4	21 ± 1.9	13 ± 0.7	30 ± 1.9	21 ± 1.9	13 ± 0.1	9.0 ± 0.03	7.0 ± 0.03	127 ± 4.2	180 ± 7.2	100 ± 1.3	94 ± 3.2	100 ± 1.3	94 ± 3.2	97 ± 4.2	136 ± 5.1	29 ± 1.4	41 ± 2.1	40 ± 1.4	
LHVDPENF [LF-8]	37 ± 2.0	21 ± 0.5	11 ± 0.2	22 ± 2.0	11 ± 0.1				97 ± 2.2	98 ± 4.2	99 ± 3.1	98 ± 2.3			96 ± 2.1	95 ± 3.2			31 ± 1.1	
LSDLHAHK [LK-8]	55 ± 2.3	51 ± 0.1	25 ± 0.3	48 ± 2.2	39 ± 2.4				98 ± 3.4	96 ± 1.3	98 ± 3.3	97 ± 3.1			97 ± 1.4	98 ± 3.4			62 ± 3.1	
LSFPTTK [LK-7]	48 ± 2.6	37 ± 1.7	18 ± 0.7	33 ± 2.4	17 ± 0.4	15 ± 0.1	10 ± 0.4	5.0 ± 0.05	93 ± 3.2	94 ± 3.6	98 ± 4.3	95 ± 3.3	98 ± 4.3	95 ± 3.3	97 ± 3.3	93 ± 3.7	29 ± 1.6	29 ± 1.8	47 ± 1.1	0.1 ± 0.01
